The values that follow come from patent US8071586B2, “Heterocyclyl compounds” (Hoffmann-La Roche Inc., priority 2008, dated 2011).

The target of the assay is T1, human chemokine receptor 2 isoform B (CCR2) (Homo sapiens, UniProt P41597).
T1 sequence (P41597 1-360 isoform P41597-2): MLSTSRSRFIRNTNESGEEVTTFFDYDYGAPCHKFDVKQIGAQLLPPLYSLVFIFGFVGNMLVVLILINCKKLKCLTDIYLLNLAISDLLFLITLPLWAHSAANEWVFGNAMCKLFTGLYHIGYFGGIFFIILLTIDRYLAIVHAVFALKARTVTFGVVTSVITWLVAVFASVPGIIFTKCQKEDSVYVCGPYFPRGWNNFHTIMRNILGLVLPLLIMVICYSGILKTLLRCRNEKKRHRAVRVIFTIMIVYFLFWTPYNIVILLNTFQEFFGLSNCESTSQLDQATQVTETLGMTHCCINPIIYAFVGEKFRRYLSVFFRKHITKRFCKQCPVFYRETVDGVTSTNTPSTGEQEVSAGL
The assay is described as follows: Calcium mobilization assay (FLIPR, MCP-1 stimulated CHOK1-CCR2B-A5 cells). The class given is cell-based. Conditions: Ca mobilisation assay, CCR2 antagonist activity, inhibition of MCP-1 induced calcium increase. The protocol: Calcium Mobilization Assay
CHOK1-CCR2B-A5 cells (from Euroscreen) stably overexpressing the human chemokine receptor 2 isoform B were cultured in Nutrient Hams F12 medium supplemented with 5% FBS, 100 U/ml penicillin, 100 μg/ml streptomycin, 400 μg/ml G418 and 5 μg/ml puromycin.
For the assay cells were grown overnight in 384-well black clear flat bottom polystyrene plates (Costar) at 37° C. at 5% CO2. After washing with DMEM, 20 mM Hepes, 2.5 mM probenecid, 0.1% BSA (DMEM assay buffer) cells were loaded with 4 μM Fluo-4 in the same DMEM assay buffer for 2 hours at 30° C. Excess dye was removed and cells were washed with DMEM assay buffer. 384-well compound plates were prepared with DMEM assay buffer/0.5% DMSO with or without various concentrations of test compounds. Usually compounds were tested for agonist and antagonist activity.
Test compounds were added to the assay plate and agonist activity was monitored as fluorescence for 80 seconds with a FLIPR (488 nm excitation; 510-570 nm emission; Molecular Devices). After 20-30 min. of incubation at 30° C., […] MCP-1 (R&D; Roche) was added and fluorescence was monitored again for 80 seconds. Increases in intracellular calcium are reported as maximum fluorescence after agonist exposure minus basal fluorescence before exposure. Antagonist activity is indicated as inhibitor concentration required for 50% inhibition of specific calcium increases.
(Calcium assays in cells follow changes in intracellular calcium, usually with a dye or a luminescent sensor.)
Turning to `C[C@H]1C(=O)N(CCCN2CCCCC2)CCN1C(=O)Nc1cccc(-c2ccccc2)c1` [Example 43, (S)-2-Methyl-3-oxo-4-(3-piperidin-1-yl-propyl)-piperazine-1-carboxylic acid biphenyl-3-ylamide], the IC50 (as a rule, the concentration needed to halve the response being measured) came to 610 nM.
Regarding `C[C@H]1C(=O)N(CCCN2CCC3(CC3)[C@H](O)C2)CCN1C(=O)Nc1ccc(Cl)c(Cl)c1` [Example 45, (S)-4-[3-((S)-4-Hydroxy-6-aza-spiro[2.5]oct-6-yl)-propyl]-2-methyl-3-oxo-piperazine-1-carboxylic acid (3,4-dichloro-phenyl)-amide], the half-maximal inhibitory concentration (IC50) came out at 2 nM.
As to `C[C@H]1C[C@H](O)CN(CCCN2CCN(C(=O)Nc3ccc(Cl)c(Cl)c3)[C@@H](C)C2=O)C1` [Example 46, (S)-4-[3-((3S,5S)-3-Hydroxy-5-methyl-piperidin-1-yl)-propyl]-2-methyl-3-oxo-piperazine-1-carboxylic acid (3,4-dichloro-phenyl)-amide], the IC50 came to 7 nM.
The result for `C[C@H]1CCN(CCCN2CCN(C(=O)Nc3ccc(Cl)c(Cl)c3)[C@@H](C)C2=O)C[C@H]1O` [Example 47, (S)-4-[3-((3S,4S)-3-Hydroxy-4-methyl-piperidin-1-yl)-propyl]-2-methyl-3-oxo-piperazine-1-carboxylic acid (3,4-dichloro-phenyl)-amide] reads 7 nM; that for `C[C@H]1C(=O)N(CCCN2CCC[C@@H](O)C2)CCN1C(=O)Nc1ccc(Cl)c(Cl)c1` [Example 48, (S)-4-[3-((R)-3-Hydroxy-piperidin-1-yl)-propyl]-2-methyl-3-oxo-piperazine-1-carboxylic acid (3,4-dichloro-phenyl)-amide], 370 nM; that for `C[C@H]1C(=O)N(CCCN2CCC(O)CC2)CCN1C(=O)Nc1ccc(Cl)c(Cl)c1` [Example 49, (S)-4-[3-(4-Hydroxy-piperidin-1-yl)-propyl]-2-methyl-3-oxo-piperazine-1-carboxylic acid (3,4-dichloro-phenyl)-amide], 160 nM.
In the case of `C[C@H]1C(=O)N(CCCN2CCC[C@H]2CO)CCN1C(=O)Nc1ccc(Cl)c(Cl)c1` [Example 50, (S)-4-[3-((S)-2-Hydroxymethyl-pyrrolidin-1-yl)-propyl]-2-methyl-3-oxo-piperazine-1-carboxylic acid (3,4-dichloro-phenyl)-amide], the IC50 is 120 nM.
Take `O=C(NCc1ccc(Cl)c(Cl)c1)N1CCC(=O)N([C@H](CO)CCN2CCC3(CC3)[C@H](O)C2)CC1` [Example 51, 4-[(S)-3-((S)-4-hydroxy-6-aza-spiro[2.5]oct-6-yl)-1-hydroxymethyl-propyl]-5-oxo-[1,4]diazepane-1-carboxylic acid 3,4-dichloro-benzylamide]: the IC50 was determined as 250 nM.
`O=C(NCc1ccc(Cl)c(Cl)c1)OC[C@H](CCN1CCC2(CC2)[C@H](O)C1)N1CCN(C(=O)NCc2ccc(Cl)c(Cl)c2)CCC1=O` [Example 52, (3,4-dichloro-benzyl)-carbamic acid (S)-2-[4-(3,4-dichloro-benzylcarbamoyl)-7-oxo-[1,4]diazepan-1-yl]-4-((S)-4-hydroxy-6-aza-spiro[2.5]oct-6-yl)-butyl ester]: the IC50 came to 960 nM.
As for `O=C(Nc1ccc(Cl)c(Cl)c1)N1CCC(=O)N([C@H](CO)CCN2CCC3(CC3)[C@H](O)C2)CC1` [Example 53, 4-[(S)-3-((S)-4-Hydroxy-6-aza-spiro[2.5]oct-6-yl)-1-hydroxymethyl-propyl]-5-oxo-[1,4]diazepane-1-carboxylic acid (3,4-dichloro-phenyl)-amide], the 50% inhibitory concentration (IC50) came out at 1 nM.
For `O=C1CCN(C(=O)Nc2ccc(Cl)c(Cl)c2)CCN1CCCN1CCC2(CC2)[C@H](O)C1` [Example 54, 4-[3-((S)-4-Hydroxy-6-aza-spiro[2.5]oct-6-yl)-propyl]-5-oxo-[1,4]diazepane-1-carboxylic acid (3,4-dichloro-phenyl)-amide], the IC50 was found to be 6 nM.
Take `COCC(CCN1CCC2(CC2)[C@H](O)C1)N1CCN(C(=O)Nc2ccc(Cl)c(Cl)c2)CCC1=O` (stereo partly drawn) [Example 55, (R,S)-4-[3-((S)-4-Hydroxy-6-aza-spiro[2.5]oct-6-yl)-1-methoxymethyl-propyl]-5-oxo-[1,4]diazepane-1-carboxylic acid (3,4-dichloro-phenyl)-amide]: the IC50 amounted to 4 nM.
On to `COC[C@H](CCN1CCC2(CC2)[C@H](O)C1)N1CCN(C(=O)Nc2ccc(Cl)c(Cl)c2)CCC1=O` [Example 56, 4-[(S)-3-((S)-4-hydroxy-6-aza-spiro[2.5]oct-6-yl)-1-methoxymethyl-propyl]-5-oxo-[1,4]diazepane-1-carboxylic acid (3,4-dichloro-phenyl)-amide], for which the half-maximal inhibitory concentration (IC50) stood at 2 nM.
`COC[C@@H](CCN1CCC2(CC2)[C@H](O)C1)N1CCN(C(=O)Nc2ccc(Cl)c(Cl)c2)CCC1=O` [Example 57, 4-[(R)-3-((S)-4-hydroxy-6-aza-spiro[2.5]oct-6-yl)-1-methoxymethyl-propyl]-5-oxo-[1,4]diazepane-1-carboxylic acid (3,4-dichloro-phenyl)-amide]: the half-maximal inhibitory concentration (IC50) amounted to 240 nM.
Regarding `C[C@@H]1CN(CCCN2CCC3(CC3)[C@H](O)C2)C(=O)CCN1C(=O)Nc1ccc(Cl)c(Cl)c1` [Example 58, (R)-4-[3-((S)-4-Hydroxy-6-aza-spiro[2.5]oct-6-yl)-propyl]-2-methyl-5-oxo-[1,4]diazepane-1-carboxylic acid (3,4-dichloro-phenyl)-amide], the IC50 was 3 nM.
Next, `C[C@@H]1CN(CCCN2CCC3(CC3)[C@H](O)C2)C(=O)CCN1C(=O)Nc1cccc(Cl)c1` [Example 60, (R)-4-[3-((S)-4-Hydroxy-6-aza-spiro[2.5]oct-6-yl)-propyl]-2-methyl-5-oxo-[1,4]diazepane-1-carboxylic acid (3-chloro-phenyl)-amide]: 60 nM; `Cc1ccc(NC(=O)N2CCC(=O)N(CCCN3CCC4(CC4)[C@H](O)C3)C[C@H]2C)cc1C` [Example 61, (R)-4-[3-((S)-4-Hydroxy-6-aza-spiro[2.5]oct-6-yl)-propyl]-2-methyl-5-oxo-[1,4]diazepane-1-carboxylic acid (3,4-dimethyl-phenyl)-amide]: 210 nM; `COC(=O)[C@H](CCN1CCC2(CC2)[C@H](O)C1)N1C[C@@H](C)N(C(=O)Nc2cccc(Cl)c2)CCC1=O` [Example 62, (S)-2-[(R)-4-(3-Chloro-phenylcarbamoyl)-3-methyl-7-oxo-[1,4]diazepan-1-yl]-4-((S)-4-hydroxy-6-aza-spiro[2.5]oct-6-yl)-butyric acid methyl ester]: 30 nM.
Regarding `C[C@H]1C(=O)N(CCCN2CCC3(CC3)[C@H](O)C2)CCN1C(=O)Nc1cccc(Cl)c1` [Example 69, (S)-4-[3-((S)-4-Hydroxy-6-aza-spiro[2.5]oct-6-yl)-propyl]-2-methyl-3-oxo-piperazine-1-carboxylic acid (3-chloro-phenyl)-amide], the IC50 came to 5 nM.
With `C[C@H]1C(=O)N(CCCN2CCC3(CC3)[C@H](O)C2)CCN1C(=O)Nc1ccc(F)c(Cl)c1` [Example 70, (S)-4-[3-((S)-4-Hydroxy-6-aza-spiro[2.5]oct-6-yl)-propyl]-2-methyl-3-oxo-piperazine-1-carboxylic acid (3-chloro-4-fluoro-phenyl)-amide], the IC50 is 4 nM.
